Read-outs that look alike come from different tables or passages of the source.

The target of assay [1] is FhGALE (Fasciola hepatica UDP-galactose 4’-epimerase) (Fasciola hepatica, UniProt A0A3G0ZAV7). The assay is described as follows: biochemical. It counts as biochemical. As to conditions: for Selectivity of inhibition, FhGALE versus HsGALE (in words): as judged by respective IC50 values; for IC50 range in words: under the conditions tested, summary of Table 1.
In assay [2] the target is FhGALE (Fasciola hepatica, UniProt A0A3G0ZAV7). It counts as binding. As to conditions: for Kd: read-out: apparent dissociation constant (KD,app); for Effect on melting temperature (Tm) of FhGALE: thermal scanning fluorimetry, FhGALE 3.0 µM.
Assay [3] concerns the target T1, HsGALE (human GALE) (Homo sapiens, UniProt Q14376).
T1 sequence (Q14376 1-348): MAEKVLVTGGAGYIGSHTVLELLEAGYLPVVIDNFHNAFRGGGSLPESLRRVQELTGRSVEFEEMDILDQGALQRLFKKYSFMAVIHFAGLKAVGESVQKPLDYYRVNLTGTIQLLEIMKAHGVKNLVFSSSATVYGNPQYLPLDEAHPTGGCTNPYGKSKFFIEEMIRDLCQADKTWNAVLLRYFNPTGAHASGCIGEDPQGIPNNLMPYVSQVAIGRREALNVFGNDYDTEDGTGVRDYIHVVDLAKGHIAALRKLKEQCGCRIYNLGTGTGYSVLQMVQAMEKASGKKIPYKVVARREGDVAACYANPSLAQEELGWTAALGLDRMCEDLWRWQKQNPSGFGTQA
The assay is described as follows: HsGALE inhibition, coupled enzyme assay with UDP-glucose dehydrogenase. It counts as biochemical.

For assay [4], the system named is UDP-glucose dehydrogenase. As to conditions: 100 µM compound, 0.17 mM UDP-glucose, […] NAD+.

As for `O=C1NC(=O)C(F)C(C(=O)O)N1` (centres unmarked) [NSC31712, 5-fluoro-2,6-dioxohexahydropyrimidine-4-carboxylate], in assay [1], the “Selectivity of inhibition, FhGALE versus HsGALE (in words)” value (“Selectivity of inhibition” below) is recorded as “inhibited FhGALE several orders of magnitude more strongly than HsGALE” and the “IC50 range in words” value is “submicromolar”. Besides, the “Selectivity of inhibition” value in assay [1] (listed as 5-fluoroorotate) is on record as “selectivity for FhGALE over HsGALE”. In addition, the IC50 in assay [1] (read-out: FhGALE IC50, pH 7.5) was found to be 0.03 ± 0.011 µM. Further, in assay [2], the Kd was 1900 ± 900 µM and the “Effect on melting temperature (Tm) of FhGALE” value (“Effect on melting temperature” for short) is reported as “reducing the Tm in a concentration dependent manner”.
Turning to `CCOc1ccc(NC(=O)c2cc3ccccc3cc2O)cc1` [NSC50690, N-(4-ethoxyphenyl)-3-hydroxynaphthalene-2-carboxamide], in assay [1], inhibition was half-maximal at 0.061 ± 0.02 µM (IC50); the “Selectivity of inhibition” value was “inhibited both enzymes to approximately the same extent”; the “IC50 range in words” value was “submicromolar”. The compound also displayed an IC50 in assay [3] of 0.045 ± 0.023 µM.
Consider `Cn1c(=O)c2[nH]c(COc3ccc(C(C)(C)C)cc3)nc2n(C)c1=O` [NSC36525, 8-[(4-tert-butylphenoxy)methyl]-1,3-dimethyl-3,7-dihydro-1H-purine-2,6-dione], for which, in assay [1], the IC50 came out at 260 µM and the “Selectivity of inhibition” value is “inhibited the human enzyme to a greater extent than the liver fluke one”. Further, in assay [3], the half-inhibitory concentration (IC50) was 9.5 ± 8.2 µM.
In the case of `NC(=O)c1ccc[n+]([C@@H]2O[C@H](COP(=O)([O-])OP(=O)(O)OC[C@H]3O[C@@H](n4cnc5c(N)ncnc54)[C@H](O)[C@@H]3O)[C@@H](O)[C@H]2O)c1` [NAD^+], the “Effect on melting temperature” value in assay [2] was “no measurable effect”.
For the compound `CC(C)c1nc2c([nH]1)c(=O)n(C)c(=O)n2C` [NSC14303], in assay [1], the concentration for half-maximal inhibition (IC50) came to 0.3 ± 0.11 µM; the “Selectivity of inhibition” value is “inhibited the human enzyme to a greater extent than the liver fluke one”; the “IC50 range in words” value is reported as “submicromolar”. Besides, in assay [3], the IC50 turned out to be 0.013 ± 0.006 µM.
Take `CC1(C)OC2C(CO)OC(n3cnc4c(=S)nc[nH]c43)C2O1` (centres unmarked) [NSC27305, 9-[6-(hydroxymethyl)-2,2-dimethyltetrahydrofuro[3,4-d][1,3]dioxol-4-yl]-3,9-dihydro-6H-purine-6-thione]: in assay [1], the half-maximal inhibitory concentration (IC50) is 0.00011 ± 0.00012 µM; the “Selectivity of inhibition” value is given as “inhibited both enzymes to approximately the same extent”; the “IC50 range in words” value is listed as “sub-nanomolar”. The compound further gave an IC50 in assay [3] of 0.0061 ± 0.0092 µM.
As to `COc1cccc(OCC(O)CN2CCN(c3ccccc3)CC2)c1` (centres unmarked) [NSC91378], the “Effect on rate of coupling enzyme UDP-glucose dehydrogenase” value in assay [4] is “affect the rate”.
On to `CC(C)CC(NC(=O)OCc1ccccc1)C(=O)NC(Cc1c[nH]c2ccccc12)C(=O)O` (centres unmarked) [NSC335979, (3-(1H–indol-3-yl)-2-[[4-methyl-2-(phenylmethoxycarbonylamino)pentanoyl]amino]propionate)], for which, in assay [1], the “Selectivity of inhibition” value was “inhibited FhGALE several orders of magnitude more strongly than HsGALE” and the “IC50 range in words” value is on record as “submicromolar”. For the same compound, the “Selectivity of inhibition” value in assay [1] (listed as N-[(benzyloxy)carbonyl]leucyltryptophan) was “selectivity for FhGALE over HsGALE”. In assay [1] (read-out: FhGALE IC50, pH 7.5), the IC50 came out at 0.1 ± 0.046 µM. Besides, in assay [2], the Kd came to 210 ± 20 µM and the “Effect on melting temperature” value is recorded as “reducing the Tm in a concentration dependent manner”.

Source of the values: article PMC4515351 (Parasitology, 2014).
